Reference: PubChem BioAssay (NCI)
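Compound exposure: 48 hours, 5 concentrations, 96-well plates. GI50: concentration for 50% inhibition of growth. Definition used: TGI = concentration required for complete inhibition of growth.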

Key:
Test in all cases: DTP human tumour cell line panel, 48 h
MCF7 breast = test system: MCF7 breast
MDA-N = test system: MDA-N
NCI/ADR-RES ovarian = test system: NCI/ADR-RES ovarian
T-47D breast = test system: T-47D breast
MDA-MB-435 = test system: MDA-MB-435
KM20L2 colon = test system: KM20L2 colon
HOP-18 NSCLC = test system: HOP-18 NSCLC
M19-MEL melanoma = test system: M19-MEL melanoma
RXF-631 renal = test system: RXF-631 renal

Row | SMILES | TGI (MCF7 breast) [µM] | TGI (NCI/ADR-RES ovarian) [µM] | TGI (T-47D breast) [µM] | GI50 (MDA-MB-435) [µM] | TGI (MDA-MB-435) [µM] | GI50 (T-47D breast) [µM] | TGI (KM20L2 colon) [µM] | TGI (M19-MEL melanoma) [µM] | other results
1 | NNc1ncnc2cccc(Cl)c12 | > 100 | > 100 | > 100 | – | – | – | – | – | TGI (MDA-N): > 100 µM
2 | Cn1cc(-c2ccc3nnc(C(F)(F)c4ccc5ncccc5c4)n3n2)cn1 | > 100 | > 100 | > 100 | 57.8 | > 100 | 40.8 | – | – | GI50 (MCF7 breast): 69.4 µM; GI50 (NCI/ADR-RES ovarian): 62.2 µM
3 | O=C(O)CCCc1cc2c(s1)-c1cccc3cccc-2c13 | – | – | – | – | – | – | > 100 | – | –
4 | COC(=O)C1=Cc2cn(S(=O)(=O)c3ccc(C)cc3)c3cccc(c23)C(C=C(C)C)N1C(C)=O (stereo not drawn) | – | – | – | – | – | – | > 100 | > 100 | TGI (HOP-18 NSCLC): > 100 µM
5 | O=C1CCCCCCCCCCOC(=O)CCCCCCCCCCO1 | – | – | – | – | – | – | – | > 100 | TGI (HOP-18 NSCLC): > 100 µM
6 | CC(C)(N)C(=O)N[C@@H]1C(=O)N2[C@@H]1SC(C)(C)[C@@H]2C(=O)O | > 100 | > 100 | > 100 | – | > 100 | – | – | – | TGI (MDA-N): > 100 µM
7 | CSc1nc(SC)c2c(C)cn(C3OC(C)C(O)C(O)C3O)c2n1 (stereo not drawn) | > 100 | > 100 | 84.7 | – | > 100 | – | – | – | TGI (MDA-N): > 100 µM
8 | NC(CSC1(c2ccc(Cl)cc2)c2ccccc2-c2ccccc21)C(=O)O (stereo not drawn) | 39 | > 100 | > 100 | – | 35.3 | – | – | – | TGI (MDA-N): > 100 µM
9 | Cc1cc(C)c(C2=NO[C@@H]3C(=O)N(c4ccc(Cc5ccc(N6C(=O)[C@H]7C(c8c(C)cc(C)cc8C)=NO[C@H]7C6=O)cc5)cc4)C(=O)[C@H]23)c(C)c1 | – | – | – | – | – | – | > 100 | > 100 | TGI (HOP-18 NSCLC): > 100 µM
10 | Cn1c(=O)c(-c2c(Cl)cccc2Cl)cc2cnc(Nc3ccc(I)cc3)nc21 | > 100 | 0.225 | > 100 | < 0.0304 | – | 0.229 | – | – | GI50 (MCF7 breast): 0.212 µM
11 | Cc1cc2nc3c4cc([N+](=O)[O-])ccc4n(CCN(C)C)c3nc2cc1C | – | 4.6 | > 42 | 0.635 | 1.96 | 0.549 | – | – | GI50 (MCF7 breast): 0.36 µM; GI50 (NCI/ADR-RES ovarian): 0.382 µM
12 | [Au+].c1c[n-]cn1.c1ccc([PH+](c2ccccc2)c2ccccc2)cc1 | – | > 100 | 4.74 | 5.17 | 23.1 | 2.02 | 58.3 | 11.9 | GI50 (HOP-18 NSCLC): 2.08 µM; TGI (HOP-18 NSCLC): 4.35 µM; GI50 (KM20L2 colon): 21.9 µM; GI50 (M19-MEL melanoma): 3.4 µM; GI50 (MDA-N): 3.17 µM; TGI (MDA-N): 12.9 µM; GI50 (NCI/ADR-RES ovarian): 32.9 µM
13 | NCCCCCCCCCn1c2c(c3ccccc3c1=O)C(=O)c1ccccc1-2 | 26.1 | 22.4 | 22 | 9.52 | 19.1 | 9.33 | – | – | GI50 (MCF7 breast): 9.62 µM; GI50 (NCI/ADR-RES ovarian): 9.47 µM
14 | C=C1CCC2(C(C)=O)COC1(C)O2 (stereo not drawn) | – | – | – | – | – | – | – | > 100 | TGI (HOP-18 NSCLC): > 100 µM
15 | C=CNC(=S)n1nc(-c2ccccc2NC(=O)C(F)(F)F)c(=O)n(C(=S)NC=C)c1=S | – | – | – | – | – | – | – | > 100 | –
16 | COc1c(OC)c(OC)c(-c2cc(=O)c3c(OC)c(OC)c(OC)c(OC)c3o2)c(OC)c1OC | – | 78.9 | 47.9 | – | > 100 | – | – | – | TGI (MDA-N): > 100 µM
17 | O=C(CC1(O)C(=O)Nc2ccc([N+](=O)[O-])cc21)c1ccc(Br)cc1 (stereo not drawn) | – | – | – | – | – | – | > 100 | 69 | TGI (HOP-18 NSCLC): > 100 µM

Row | SMILES | TGI (MCF7 breast) [µM] | TGI (NCI/ADR-RES ovarian) [µM] | TGI (T-47D breast) [µM] | GI50 (MDA-MB-435) [µM] | TGI (MDA-MB-435) [µM] | GI50 (T-47D breast) [µM] | TGI (KM20L2 colon) [µM] | TGI (M19-MEL melanoma) [µM] | other results
18 | O=[N+]([O-])c1cccc([I+]c2ccccc2)c1 | 41.5 | > 100 | 33.4 | 11.6 | 29.2 | 8.28 | – | – | GI50 (MCF7 breast): 8.29 µM; GI50 (NCI/ADR-RES ovarian): 47.9 µM
19 | O=[P+](O)c1cccnc1 | – | – | – | – | – | – | > 100 | > 100 | TGI (RXF-631 renal): > 100 µM
20 | CC(C)OC(=O)c1cccnc1/C=N/O | – | – | – | – | – | – | > 100 | > 100 | –
21 | COc1cc2oc(-c3ccc(O)cc3)cc(=O)c2c(OC)c1O | > 100 | > 100 | 88.2 | – | > 100 | – | – | – | TGI (MDA-N): > 100 µM
22 | O=C(NCCCl)NCc1ccccc1 | > 100 | > 100 | > 100 | – | > 100 | – | – | – | TGI (MDA-N): > 100 µM
23 | O=c1sc(-c2nc3ccccc3[nH]2)c(/N=C/c2ccccc2)n1-c1ccccc1 | – | – | – | – | – | – | – | > 100 | TGI (HOP-18 NSCLC): > 100 µM
24 | CN(CC1NCCCC1O)C12CC3CC(CC(C3)C1)C2 (stereo not drawn) | – | – | – | – | – | – | > 100 | > 100 | TGI (HOP-18 NSCLC): > 100 µM
25 | COc1cc(/C=C2\CC3C4CCC5=CC(=O)CC[C@]5(C)C4CC[C@]3(C)C2=O)ccc1OCCN1CCCCC1 (stereo partly drawn) | 8.55 | > 100 | 41.9 | 1.97 | 4.28 | 11.3 | – | – | GI50 (MCF7 breast): 3.35 µM; GI50 (NCI/ADR-RES ovarian): 4.62 µM
26 | CN(CCCCN)c1ccc2c(=O)[nH][nH]c(=O)c2c1 | – | – | – | – | – | – | – | > 37 | TGI (HOP-18 NSCLC): > 100 µM
27 | Cc1nc(-n2nc(-c3ccccc3)cc2-c2ccccc2)sc1C(/C=C/c1ccc([N+](=O)[O-])cc1)=N/NC(N)=S | – | – | – | – | – | – | > 100 | > 100 | –
28 | CCCCCCn1c2c(c3c(O)cccc31)C(=O)c1ccccc1-2 | 35.2 | 33 | > 100 | 20.3 | 44.9 | 41.4 | – | – | GI50 (MCF7 breast): 18 µM; GI50 (NCI/ADR-RES ovarian): 18 µM
29 | Oc1[nH]c2ccccc2c1/C=c1/ccc2c(c1)N=C(c1cc(F)cc(F)c1)N=2 | 14.1 | 17.7 | 21.3 | 1.92 | 5.08 | 4.55 | – | – | GI50 (MCF7 breast): 2.84 µM; GI50 (NCI/ADR-RES ovarian): 4.18 µM
30 | Cn1c2c(c3ccccc31)CCN(CCCN1CCN(c3ccccc3)CC1)C2=O | – | – | – | – | – | – | 25.4 | 38.2 | TGI (HOP-18 NSCLC): 32.9 µM
31 | CSCC(COC(C)=O)(CSC)c1ccncc1 | – | – | – | – | – | – | > 100 | > 100 | –
32 | CC/C(=C(/CC)c1ccc(O)cc1)c1ccc(O)cc1 | 19.3 | 20.2 | 47 | 1.87 | 5.14 | 6.85 | – | – | GI50 (MCF7 breast): 5.78 µM; GI50 (NCI/ADR-RES ovarian): 3.09 µM
33 | CC(=O)Nc1ccc(Cc2ccc3[nH]c(=O)cc(C)c3c2)cc1 | > 100 | > 100 | > 100 | – | > 100 | – | – | – | TGI (MDA-N): > 100 µM
34 | COc1ccc(Nc2ncccc2C(=O)NCc2cn(Cc3cccc(Oc4ccccc4)c3)nn2)c(OC)c1 | > 100 | 35.5 | > 100 | 0.24 | 0.707 | 39.4 | – | – | GI50 (MCF7 breast): 0.653 µM; GI50 (NCI/ADR-RES ovarian): 2.12 µM
